In brackets after ≈: the same amount, converted by molar mass. Several values for one entry are separate records, joined by “and”; a condition that tells them apart may be missing. Equal values may be shown once.

Common to all, as to assay: ≥ marks a high value that may be exact or a test limit, other limits are often not marked, values filed in µg/mL are converted to µM
Test [1] deals with Erwinia amylovora PMV 6076.
Test [2] relates to Xanthomonas campestris pv. Vesicatoria 2133-2.
Test [3] concerns Pseudomonas syringae pv. syringae EPS 94.
The test system of test [4] is Pseudomonas aeruginosa ATCC 9027.
Test [5] has as its system Staphylococcus aureus ATCC 33591.
For test [6], the system named is Klebsiella pneumoniae ATCC 13883.
Test [7] deals with Staphylococcus aureus ATCC 6538.
In test [8] the test system is Staphylococcus epidermidis ATCC 12228.
The subject of test [9] is Enterococcus faecalis ATCC 29212.
Test [10] concerns Staphylococcus aureus ATCC 12598.
For test [11], the system named is Klebsiella aerogenes ATCC 13048.
Test [12] concerns Acinetobacter baumannii ATCC BAA-1605.
The subject of test [13] is Enterococcus faecium ATCC 700221.
Test [14] concerns Klebsiella pneumoniae ATCC 700603.
Test [15] deals with Staphylococcus aureus ATCC 9144.
Test [16] deals with Acinetobacter baumannii ATCC 19606.
Test [17] has as its system Burkholderia cepacia J2540.
In test [18] the test system is Bacillus anthracis UM23-CL2.
The subject of test [19] is Staphylococcus aureus 22401.
In test [20] the test system is Escherichia coli 44102.
Test [21] has as its system Vibrio anguillarum C312.
Test [22] has as its system Micrococcus luteus.
Test [23] concerns Edwardsiella tarda TX1.
Test [24] concerns Staphylococcus aureus.
For test [25], the system named is Pseudomonas aeruginosa LCCI.
For test [26], the system named is Pseudomonas aeruginosa LCGE.
Test [27] concerns Staphylococcus aureus ATCC 29213.
For test [28], the system named is Salmonella enterica subsp. enterica serovar Typhimurium C77-31.
The test system of test [29] is Pseudomonas aeruginosa ATCC 21625.
In test [30] the test system is Pseudomonas aeruginosa LCCE.
For test [31], the system named is Pseudomonas aeruginosa ATCC 10419.
The test system of test [32] is Pseudomonas aeruginosa ATCC 27853.
In test [33] the test system is Pseudomonas aeruginosa ATCC 21630.
Test [34] relates to Pseudomonas aeruginosa LC.
Test [35] relates to Escherichia coli ATCC 25922.
Test [36] deals with Staphylococcus aureus ATCC 43300.
The subject of test [37] is Staphylococcus aureus LAC.
For test [38], the system named is Pseudomonas aeruginosa PAO1.

Turning to `CC[C@H](C)[C@H](NC(=O)[C@H](CCCCN)NC(=O)[C@H](CCCCN)NC(=O)[C@H](Cc1ccccc1)NC(=O)[C@H](CC(C)C)NC(=O)[C@H](CCCCN)NC(=O)[C@@H](N)CCCCN)C(=O)N[C@@H](CC(C)C)C(=O)N[C@@H](CCCCN)C(=O)N[C@@H](Cc1ccc(O)cc1)C(=O)N[C@@H](CC(C)C)C(=O)N[C@@H](C)C(=O)NCC(=O)N1CCC[C@H]1C(=O)N[C@@H](C)C(=O)O` [KKLFKKILKYLAGPA], the MIC – broadly, the smallest concentration in the dilution series that meets the test's criterion for growth inhibition – was 14.1 µM (≈ 24.3 µg/mL) in test [1], 3.54 µM (≈ 6.07 µg/mL) in test [2] and 14.1 µM (≈ 24.3 µg/mL) in test [3].

For the molecule `CC[C@H](C)[C@H](NC(=O)[C@H](CCCN=C(N)N)NC(=O)[C@H](CCC(N)=O)NC(=O)[C@@H](NC(=O)[C@@H](NC(=O)[C@H](CCCN=C(N)N)NC(=O)[C@H](CCCCN)NC(C)=O)[C@@H](C)CC)C(C)C)C(=O)N[C@@H](CCCCN)C(=O)N[C@@H](CC(=O)O)C(=O)N[C@@H](Cc1ccccc1)C(=O)N[C@@H](CC(C)C)C(=O)N[C@@H](CCCN=C(N)N)C(N)=O` [KRIVQRIKDFLR], the MIC in test [4] was 40.7 µM (≈ 65.7 µg/mL); in test [5], not below 163 µM; in [6] it was not below 163 µM; in test [7], 163 µM (≈ 263 µg/mL); in test [8], not below 163 µM; in [9], not below 81.4 µM. The MIC was not below 163 µM in [10]; not below 163 µM in test [11]; not below 163 µM in test [12]; 10.2 µM (≈ 16.4 µg/mL) in [13]; 163 µM (≈ 263 µg/mL) in test [14]; not below 163 µM in [15]. In [16], this molecule showed an MIC not below 163 µM.

Regarding `CC[C@H](C)[C@H](NC(=O)[C@H](CCCCN)NC(=O)[C@H](CCCCN)NC(=O)[C@H](Cc1ccccc1)NC(=O)[C@H](CC(C)C)NC(=O)[C@H](CCCCN)NC(=O)[C@H](Cc1c[nH]c2ccccc12)NC(=O)[C@@H](N)CCCCN)C(=O)N[C@@H](C)C(=O)N[C@@H](CCCCN)C(=O)N[C@@H](CCCCN)C(=O)N[C@@H](Cc1ccccc1)C(=O)N[C@@H](C)C(=O)N[C@@H](CCCCN)C(=O)N[C@@H](C)C(=O)N[C@@H](Cc1ccccc1)C(=O)N[C@H](C(=O)N[C@@H](C)C(=O)N[C@@H](CCC(=O)O)C(=O)N[C@H](C(=O)N[C@@H](CCSC)C(=O)O)[C@@H](C)CC)C(C)C` [KWKLFKKIAKKFAKAFVAEIM], the MIC in test [17] is 12.4 µM (≈ 31.3 µg/mL); in [18] it was 24.7 µM and ≥ 49.5 µM.

As for `CC[C@H](C)[C@H](NC(=O)[C@H](CCC(=O)O)NC(=O)[C@H](C)NC(=O)[C@H](Cc1ccccc1)NC(=O)[C@@H](N)CC(N)=O)C(=O)N[C@@H](Cc1ccccc1)C(=O)N[C@@H](C)C(=O)N[C@@H](C)C(=O)N[C@H](C(=O)N[C@@H](CC(N)=O)C(=O)N[C@@H](CCCCN)C(=O)N[C@@H](CC(C)C)C(=O)N[C@H](C(=O)N[C@@H](CCCCN)C(=O)N[C@@H](CCC(N)=O)C(=O)NCC(=O)N[C@H](C(=O)N[C@H](C(=O)N[C@@H](CCCCN)C(=O)NCC(=O)O)C(C)C)C(C)C)[C@@H](C)CC)C(C)C` [NFAEIFAAVNKLIKQGVVKG], the results for the MIC in test [19] and in test [20] were not below 50 µM and 25 µM (≈ 53.7 µg/mL), respectively.

For `CC[C@H](C)[C@H](NC(=O)[C@H](Cc1cnc[nH]1)NC(=O)[C@H](CO)NC(=O)[C@@H](N)CCC(N)=O)C(=O)N[C@@H](CO)C(=O)N[C@@H](CC(C)C)C(=O)N[C@H]1CSSC[C@@H](C(=O)N[C@@H](CCCCN)C(=O)N[C@@H](Cc2ccccc2)C(=O)O)NC(=O)[C@@H]2CSSC[C@H](NC(=O)[C@H](Cc3c[nH]c4ccccc34)NC(=O)[C@H](CCCN=C(N)N)NC1=O)C(=O)N[C@H]1CSSC[C@H](NC(=O)CNC(=O)[C@H](CCCCN)NC(=O)[C@H](CC(N)=O)NC(=O)[C@H](C)NC(=O)[C@H](CCCCN)NC(=O)[C@@H]3CSSC[C@H](NC(=O)[C@H](CC(N)=O)NC1=O)C(=O)N3)C(=O)NCC(=O)N[C@@H](Cc1ccccc1)C(=O)N2` [QSHISLCRWCCNCCKANKGCGFCCKF], the MIC in [21] came out at 5.66 µM (≈ 16.6 µg/mL); in [22] it was 1.41 µM (≈ 4.15 µg/mL); in test [23], 2.83 µM (≈ 8.3 µg/mL); in test [24] it was 2.83 µM (≈ 8.3 µg/mL).

Take `CC[C@H](C)[C@H](NC(=O)[C@H](CCCCN)NC(=O)[C@H](CCCCN)NC(=O)[C@H](CC(C)C)NC(=O)[C@H](CCCN=C(N)N)NC(=O)[C@H](CCCCN)NC(=O)[C@H](CCCN=C(N)N)NC(=O)[C@@H](NC(=O)[C@H](CCCCN)NC(=O)[C@H](CCCCN)NC(=O)[C@H](CCCN=C(N)N)NC(=O)[C@H](CC(C)C)NC(=O)[C@H](CCCN=C(N)N)NC(=O)[C@H](CCCN=C(N)N)NC(=O)[C@H](Cc1ccccc1)NC(=O)[C@@H](N)CCCN=C(N)N)[C@@H](C)CC)C(N)=O` [RFRRLRKKIRKRLKKI]: the MIC is not below 256 µM in [25]; not below 256 µM in test [26]; 256 µM (≈ 562 µg/mL) in test [27]; not below 256 µM in test [28]; not below 256 µM in test [29]; not below 256 µM in [30]. For the same molecule, the MIC is not below 256 µM in [31]; 32 µM (≈ 70.2 µg/mL) in [8]; 256 µM (≈ 562 µg/mL) in [32]; not below 256 µM in test [33]; not below 64 µM in [34]; 128 µM (≈ 281 µg/mL) in test [35].

Consider `NC(N)=NCCC[C@H](NC(=O)[C@H](CCCN=C(N)N)NC(=O)[C@H](CCCN=C(N)N)NC(=O)[C@@H](N)CCCN=C(N)N)C(=O)N[C@@H](Cc1c[nH]c2ccccc12)C(=O)N[C@@H](Cc1c[nH]c2ccccc12)C(=O)N[C@@H](Cc1c[nH]c2ccccc12)C(=O)N[C@@H](Cc1c[nH]c2ccccc12)C(=O)O` [RRRRWWWW], for which the MIC in test [36] was 31.3 µM (≈ 43.4 µg/mL); in [37], 23.1 µM (≈ 32 µg/mL); in [38], 15.6 µM (≈ 21.7 µg/mL); in test [35], 46.1 µM (≈ 64 µg/mL).
